Results taken from patent US20160046616A1, “NRF2 SMALL MOLECULE INHIBITORS FOR CANCER THERAPY” (THE JOHNS HOPKINS UNIVERSITY, priority 2013, published 2016).
“Also recorded” adds a separate entry of the source.

Experiments:
osteosarcoma cells = assay: Clonogenic assay in osteosarcoma cells; type: cell-based; conditions: for Growth of osteosarcoma cells, single agent: single agents
Method: (§1) For the clonogenic assays, 1,000 cells/well were plated in a 6-well plate. The next day, the cells were treated with vehicle (DMSO), Nrf2 inhibitor, a chemotherapeutic drug, or a combination of Nrf2 and chemotherapeutic drugs for 48 hrs. The drug containing media was then replaced with regular growth media and the cells were incubated for an additional 10 days. At the end of incubation period, the colonies were stained with Crystal Violet and imaged.

[1] = tested on: pancreatic cancer cells (MiaPaCa); assay: Clonogenic assay in MiaPaCa pancreatic cancer cells; type: cell-based; conditions: for Growth of MiaPaCa cells, combination with gemcitabine: gemcitabine (10 nM in figure legends)
Method: (A-B) Panc1 and MiaPaCa cells were treated gemcitabine (10 nM) singly or in combination with compound 1 for 72 h. At the end of treatment, regular growth media was added and cells were further incubated for 8-10 days and stained with crystal violet;
as §1

[2] = target: T1, Nrf2-MAFG protein complex binding to fluorescein labeled ARE oligos (Homo sapiens, UniProt Q16236); assay: Fluorescence polarization (FP) assay of DNA binding; type: biochemical; conditions: increasing concentration of Nrf2 inhibitor
T1 construct: made in house
T1 sequence (Q16236 1-605): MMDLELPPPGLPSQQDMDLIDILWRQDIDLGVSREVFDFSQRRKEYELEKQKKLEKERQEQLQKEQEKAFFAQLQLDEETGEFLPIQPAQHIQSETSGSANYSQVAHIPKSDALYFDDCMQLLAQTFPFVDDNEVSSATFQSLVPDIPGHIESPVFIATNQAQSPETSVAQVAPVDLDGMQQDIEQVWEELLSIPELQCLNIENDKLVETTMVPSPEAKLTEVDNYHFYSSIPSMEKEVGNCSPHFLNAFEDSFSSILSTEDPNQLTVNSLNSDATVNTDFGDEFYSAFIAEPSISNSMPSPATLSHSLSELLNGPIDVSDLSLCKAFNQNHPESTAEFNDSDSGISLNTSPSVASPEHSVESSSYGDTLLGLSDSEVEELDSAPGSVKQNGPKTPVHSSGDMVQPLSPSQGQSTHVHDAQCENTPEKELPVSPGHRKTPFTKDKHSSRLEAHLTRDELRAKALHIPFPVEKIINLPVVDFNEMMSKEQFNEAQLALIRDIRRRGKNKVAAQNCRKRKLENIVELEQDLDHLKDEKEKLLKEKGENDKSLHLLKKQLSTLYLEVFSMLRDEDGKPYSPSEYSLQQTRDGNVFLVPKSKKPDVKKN
Method: To determine if the presently disclosed small molecule inhibitors were specifically interacting with Nrf2 or the Nrf2-MAF protein complex, a fluorescence polarization assay was developed. Ammonium aurintricarboxylate, a potent inhibitor of protein-nucleic acid interactions was used as positive control in the assay. The concentration of budesonide was 10 μM in the assay.
FP assay data showing inhibition of binding of Nrf2-MAFG protein complex to fluorescein labeled ARE oligos in the presence of compound 1 (FIG. 2), compound 4 (FIG. 3), and compound 3 (FIG. 4) are shown. Ammonium aurintricarboxylate (ATA-10 μM), a well-known inhibitor of DNA binding activity, was included as positive control. […] X-axis represents increasing concentration of Nrf2 inhibitor.
Briefly, fluorescein-labeled oligonucleotides corresponding to Anti-oxidant Response Element (ARE) were diluted to the appropriate concentration in PBS. Nrf2/MafG heterodimer was prepared by gel filtration with mixed samples of purified Nrf2 and MafG proteins. MafG/Nrf2 complex was then diluted with the buffer containing Nrf2 inhibitors or buffer only to the appropriate starting concentration and then serially diluted and incubated at 4° C. for 1 h. A mixture containing fluorescein-labeled ARE and purified protein sample was incubated at 4° C. for another 1 h. After pre-warming samples to 25° C. for 2 to 3 min, fluorescence anisotropy and total intensity was measured for each dilution using a FlexStation 3 (Molecular Devices, LLC) in Basic Binding Assay-FP mode. Ammonium aurintricarboxylate (ATA-10 μM), a well-known inhibitor of DNA binding activity, was included as positive control.

[3] = tested on: Rhabdomyosarcoma cells (Rh30); assay: Growth of rhabdomyosarcoma cells (clonogenic / soft agar); type: cell-based; conditions: for Growth of rhabdomyosarcoma cells, clonogenic assay, single agent: single agents
Method: (A) Ewing sarcoma cells (A4573) cells were on soft agar and treated with doxorubicin (2 nM) singly or in combination with compound 4 (10 μM) for 72 h. At the end of treatment, regular growth media was added and cells were further incubated for 8-10 days and colonies were stained with crystal violet and counted. (B) Rhabdomyosarcoma cells (Rh30) cells were on soft agar and treated with doxorubicin (2 nM) and etoposide (5-nM) singly or in combination with compound 4 (10 μM) for 72 h. At the end of treatment, regular growth media was added and cells were further incubated for 8-10 days and colonies were stained with crystal violet and counted;
as §1

[4] = tested on: A549 NRF2-ARE-Fluc stable cell line; assay: A549 Nrf2 assay: NRF2-ARE firefly luciferase reporter gene assay; type: cell-based; conditions: Homo sapiens, read-out: Potency of inhibition, A549
Outline: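 A549 cells (Keap1 loss-of-function, constitutive NRF2) stably carrying ARE-driven firefly luciferase; compound treatment 18–24 h at 37 °C, 0.46% DMSO final.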

Compound	Growth of osteosarcoma cells, combination with doxorubicin (osteosarcoma cells)	Growth of osteosarcoma cells, single agent (osteosarcoma cells)	Growth of MiaPaCa cells, single agent [1]	Growth of MiaPaCa cells, combination with gemcitabine [1]	Binding of Nrf2-MAFG protein complex to fluorescein labeled ARE oligos [2]	Growth of rhabdomyosarcoma cells, clonogenic assay, single agent [3]	IC50 [4] [µM]	Colony growth of Rh30 cells on soft agar, combination ([3]; 10 μM with doxorubicin (2 nM) and etoposide, 72 h)	Colony growth of Rh30 cells on soft agar, single agent ([3]; 10 μM, 72 h)
CC1(C)CC2CC(C)(CN2S(=O)(=O)c2ccc(C(=O)Nc3ccc(Cl)c(S(=O)(=O)N4CCOCC4)c3)cc2)C1 (centres unmarked) [compound 3]	suppressed the growth of osteosarcoma cells	suppressed the growth of osteosarcoma cells	suppressed the growth of two different pancreatic cell lines; also recorded: significant growth inhibitory effect as a single agent	enhance the cytotoxicity of gemcitabine	Dose dependent reduction in binding	suppress growth of rhabdomyosarcoma cells	< 5		
Cc1ccccc1C(=O)N1CCc2cc(-c3nc(NC(=O)Cc4ccc5c(c4)OCO5)sc3C)ccc21 [compound 4]	suppressed the growth of osteosarcoma cells	suppressed the growth of osteosarcoma cells	suppressed the growth of two different pancreatic cell lines; also recorded: significant growth inhibitory activity as single agent	enhance the cytotoxicity of gemcitabine; also recorded: potentiates the cytotoxicity of standard care chemotherapy drugs (gemcitabine)	Dose dependent reduction in binding	suppress growth of rhabdomyosarcoma cells	< 5	potentiates the cytotoxicity of standard care chemotherapy drugs	significant growth inhibitory activity as single agent
O=C(Nc1ncc(Cc2ccc(C(F)(F)F)cc2)s1)c1ccc(-c2cccc([N+](=O)[O-])c2)o1 [Compound 1]	suppressed the growth of osteosarcoma cells	suppressed the growth of osteosarcoma cells	suppressed the growth of two different pancreatic cell lines	enhance the cytotoxicity of gemcitabine; also recorded: potentiates the cytotoxicity of standard care chemotherapy drugs (gemcitabine)	Dose dependent reduction in binding	suppress growth of rhabdomyosarcoma cells	5 to 25		
